Patent US20060229233A1, “Compositions and methods for treating neurological disorders” (ID Biomedical Corporation, priority 2004, published 2006)
Marks after values point to notes of the source that are not given here.

Experiments:
[1] = tested on: Tg2576 APP transgenic mice; assay: EAE clinical score in PLP-immunized Tg2576 APP transgenic mice; assay type: in vivo; conditions: PLP immunization in CFA
From the text: In order to determine whether the effect was unique to MOG-induced EAE, EAE was induced with proteolipid protein (PLP) peptide (amino acids 139-151) in CFA. A 76% reduction of staining for Aβ fibrils was found and a 70% reduction in Aβ levels in animals with PLP induced EAE (p<0.02) (See Table 2, FIG. 3A). In order to induce EAE with PLP, Tg2576 mice as described by Hsiao, K. et al., Science 274 (5284):99-102 (1996) were utilized, which are on a B6/SJL background. Similar results were found with Tg2576 mice and J20 immunized mice described by Mucke et al., Ann NY Acad Sci (777) 82-88 (1996), to induce MOG-EAE (See Table 1). […] Of note, there was no difference in the total AS (amyloid) load in J20 mice greater than 13 months in age when compared to Tg2576 mice greater than 16 months of age.
Induction and clinical evaluation of EAE in APP+ mice. (B6D2)F1 or (B6XSJL)F1 APP+ (WT or B-cell deficient μMT) and non-tg littermates were immunized in the hind footpads with 100 μg MOG(35-55), PLP 139-151 or 100 μg β-amyloid peptide (1-40) in CFA. […] Animals were monitored for symptoms of EAE beginning 7 days after immunization and scored as follows: 0, no disease; 1, tail paralysis; 2, hind limb weakness; 3, hind limb paralysis; 4, hind limb plus forelimb paralysis; and 5, moribund.

[2] = tested on: Aβ; assay: Anti-Aβ antibody level (IgG, OD 450) in Tg2576 APP transgenic mice; assay type: in vivo
Protocol: Antibody levels were measured against Aβ in animals immunized with MOG or PLP to determine if there was cross reactivity with Aβ and Aβ antibody titers as compared to those from animals immunized with Aβ. […] To definitively establish that antibodies were not playing a role, 16-month-old J20 mice bred to μMT B-cell deficient mice were immunized with MOG 35-55 in CFA followed by administration of Pertussis toxin.

[3] = tested on: Aβ40 and Aβ42; assay: Total brain Aβ by ELISA, Tg2576 APP transgenic mice; assay type: in vivo
From the text: (§1) In order to determine whether the effect was unique to MOG-induced EAE, EAE was induced with proteolipid protein (PLP) peptide (amino acids 139-151) in CFA. A 76% reduction of staining for Aβ fibrils was found and a 70% reduction in Aβ levels in animals with PLP induced EAE (p<0.02) (See Table 2, FIG. 3A). In order to induce EAE with PLP, Tg2576 mice as described by Hsiao, K. et al., Science 274 (5284):99-102 (1996) were utilized, which are on a B6/SJL background. Similar results were found with Tg2576 mice and J20 immunized mice described by Mucke et al., Ann NY Acad Sci (777) 82-88 (1996), to induce MOG-EAE (See Table 1). […]
(§2) Amyloid quantification. To quantify amyloid burden, the right hemisphere was extracted in 5.0 M guanidinium-chloride (pH 8) for 3 hours at room temperature. […] Brains were frozen in the presence of OCT paraformaldehyde, cut to 14-μm longitudinal sections used for immunohistological staining and amyloid fibril quantification. Well-defined hippocampal regions (Bregma −1.34), were selected for quantification of the amount of amyloid fibril in plaques using thioflavin-S staining. Images (magnification ×20) from these sections were collected from a 3CCD color video camera and analyzed with appropriate software (NIH; Imaging Research). The amount of amyloid fibril was expressed as a percentage per mm^2 hippocampal region as measured by the software.

[4] = tested on: Aβ fibrils; assay: Thioflavin-S quantification of Aβ fibrils in hippocampus, Tg2576 APP transgenic mice; assay type: in vivo
From the text: as §1, §2

[5] = tested on: activated microglia; assay: Microglia activation (CD11b staining) in PLP-immunized animals; assay type: in vivo, mice; conditions: PLP immunization; p<0.001
[6] = PLP immunization in CFA, Tg2576 APP transgenic mice

Substance: proteolipid protein (PLP) peptide (amino acids 139-151) (CHCLGKWLGHPDK; UniProt P60202 139-151, looked up, fragment)
- EAE score [1]: 1.7 ± 0.7
- anti-Aβ antibodies ([2]; PLP immunization): not detected
- Anti-Aβ Antibody ([2]; level of OD 450 at titer of 1:500 IgG, Tg2576 APP transgenic mice): 0 OD 450
- Total brain Aβ [3, 6]: 47.7 ± 18.4 ^a ng/ml
- reduction in Aβ levels ([3]; PLP induced EAE, Tg2576 mice): 70%
- % Area of thioflavin positive Aβ plaques (hippocampus) [4, 6]: 0.68 ± 0.2 ^b %
- reduction of staining for Aβ fibrils ([4]; PLP induced EAE, Tg2576 mice): 76%
- microglia activation [5]: increased levels of microglia activation
